Test results as given in patent US9248163B2, “Insulin-like growth factor binding protein 7 for treatment of cancer” (University of Massachusetts, priority 2007, dated 2016).

What was measured:
[1] = tested on: IGFBP7 expression in melanoma cell lines; assay: IGFBP7 mRNA (qRT-PCR) in melanoma cell lines after 5-aza treatment; assay type: cell-based, human; settings: 10 μM, 48 hours
Procedure: Total RNA was isolated using TRIZOLTM (Invitrogen) 7 days after retroviral transduction and puromycin selection. Reverse transcription was performed using SuperScriptTM II Reverse Transcriptase (Invitrogen) as per the manufacturer's instructions, followed by quantitative real-time PCR using Platinum SYBRTM Green qPCR SuperMix-UDG with Rox (Invitrogen). Bisulfite modification was carried out essentially as described (Frommer et al., 1992, Proc. Natl. Acad. Sci. USA, 89:1827-31), except that hydroquinone was used at a concentration of 125 mM during bisulfite treatment (carried out in the dark) and DNA was desalted on […] columns (Qiagen) after the bisulfite reaction. Six clones were sequenced for each cell line or human tissue sample. For 5-aza-2'-deoxycytidine (5-aza) treatment, melanoma cell lines were treated with 10 μM 5-aza (Calbiochem) for 48 hours.

SK-MEL-28 cells = assay: Immunoblot analysis of SMARCB1, BNIP3L and activated caspase 3; assay type: cell-based, human; settings: 24 hours, unlike rIGFBP7
Procedure: (§1) To prepare cell extracts, cells were lysed in Laemmli buffer; for phospho-proteins, cells were lysed in the presence of a phosphatase inhibitor cocktail (Sigma). To prepare conditioned media, cells were grown in Opti-MEM™ (Invitrogen) for 24 hours, and media was harvested and concentrated using Centricon™ plus 20 tubes (Millipore). Conditioned media was normalized to cell number prior to loading the gel. For the experiments shown in FIGS. 3D and 4C, rIGFBP7 was added to the culture medium at a concentration of 10 μg/ml. For the MEK/RAF inhibitor experiment of FIG. 4D, SK-MEL-28 cells were treated with 2 μg/ml or 10 μg/ml rIGFBP7, 20 μM or 40 μM of the MEK inhibitor PD98054 (Calbiochem), or 5 nM or 10 nM the RAF inhibitor GW5074 (Sigma) for 24 hours prior to harvesting cells. Proteins were resolved by SDS-PAGE and transferred to nitrocellulose. Blots were probed with the following antibodies: α-p16 (Abcam), α-acetylated H3K9 (Upstate), α-IGFBP7 (Santa Cruz), α-SMARCB1 (Abnova), α-BNIP3L (Proscience), α-BRAFV600E (Santa Cruz), α-cleaved caspase-3 p11 (Santa Cruz), α-β-actin (Sigma), α-phospho-ERK (Cell Signaling) or α-ERK (Cell Signaling).

[2] = tested on: BRAF-MEK-ERK signaling in SK-MEL-28 cells; assay: Immunoblot analysis of BRAF-MEK-ERK signaling (phospho-ERK, activated MEK1/2, RKIP); assay type: cell-based, human; settings: SK-MEL-28 cells, 24 hours; PD98054 20 or 40 μM, GW5074 5 or 10 nM
Procedure: as §1
To test this idea, rIGFBP7 was added to BRAFV600E-positive SK-MEL-28 melanoma cells, and the levels of total and activated ERK (phospho-ERK) were analyzed.

[3] = tested on: NCI 60 panel of human cancer cell lines; assay: Growth inhibition of the NCI 60 panel cell lines by MEK inhibitor; assay type: cell-based
Procedure: The growth dependence of the above cell lines on the Ras-BRAF-MEK-Erk signaling pathway was also determined. 1.5×10^5 cells of each cell line were treated with 20 μM of the MEK inhibitor U0216 (Cell Signaling) for 24 hours, and growth of the cell lines was determined. U0216 inhibited growth in 11/11 (100%) of the cell lines that contained a BRAF mutation and 11/13 (84.6) of the cell lines that contained a RAS mutation. The one cell line that contained both a BRAF and a RAS mutation was susceptible to growth inhibition by U0216.

`Nc1ncn([C@H]2C[C@H](O)[C@@H](CO)O2)c(=O)n1` [5-aza-2′-deoxycytidine] was tested, and the IGFBP7 expression ([1]; BRAF/RAS-wild type cell lines) was “no effect” and the IGFBP7 expression ([1]; BRAFV600E- and NRASQ61R-positive cell lines) was “restored IGFBP7 expression”.

For `O=C1Nc2ccc(I)cc2/C1=C/c1cc(Br)c(O)c(Br)c1` [RAF inhibitor, reference compound], the “BNIP3L levels and induction of apoptosis” value (SK-MEL-28 cells) was “did not increase BINP3L levels or efficiently induce apoptosis” and the BRAF-MEK-ERK signaling [2] was “blocked BRAF-MEK-ERK signaling”.

In the case of `N#CC(=C(/N)Sc1ccccc1N)/C(C#N)=C(/N)Sc1ccccc1N` [U0216], the “cell lines in which growth was inhibited” value ([3]; cell lines that contained a BRAF mutation (11/11), 20 μM, 24 hours) is reported as 100%, the “cell lines in which growth was inhibited” value ([3]; cell lines that contained a RAS mutation (11/13), 20 μM, 24 hours) is reported as 84.6 and the “cell lines susceptible to growth inhibition” value ([3]; cell lines without a BRAF or RAS mutation, 20 μM, 24 hours) is reported as 0/34. The “susceptibility to growth inhibition” value ([3]; one cell line with both a BRAF and a RAS mutation) was “susceptible”.
